Source: patent US20240254114A1, “PREPARATION OF FUSED AZOLE DERIVATIVES AS NOVEL DIACYLGLYCERIDE 0-ACYLTRANSFERASE 2 INHIBITORS” (Merck Sharp & Dohme LLC, priority 2022, published 2024)
pIC50: −log10 of the molar value.

Target: human DGAT2 (Homo sapiens (Human), UniProt Q96PD7)
Experiment: DGAT2 Enzymatic Activity Assay
Settings: Human DGAT2 IC50, hDGAT2 membrane prep from Sf-9 cells; 13C18-triolein product by LC/MS/MS
Description: Sf-9 insect cells were maintained in Grace's insect cell culture medium with 10% heated-inactivated fetal bovine serum, 1% Pluronic F-68 and 0.14 μg/ml Kanamycine sulfate at 27° C. in a shaker incubator. After infection with untagged baculovirus expressing human DGAT2 (hDGAT2) at multiplicity of infection (MOI) 3 for 48 hours, cells were harvested. Cell pellets were suspended in buffer containing 10 mM Tris-HCl pH 7.5, 1 mM EDTA, 250 mM sucrose and Complete Protease Inhibitor Cocktail (Sigma Aldrich), and sonicated on ice. Cell debris were removed by centrifugation at 2000×g for 15 minutes. Membrane fractions were isolated by ultracentrifugation (100,000×g), resuspended in the same buffer, and frozen (−80° C.) for later use. The protein concentration was determined with the Pierce™ BCA Protein Assay Kit (Thermo Fisher Scientific).
LC/MS/MS analyses were performed using Thermal Fisher's LX4-TSQ Vantage system. This system consists of an Agilent binary high-performance liquid chromatography (HPLC) pump and a TSQ Vantage triple quadrupole MS/MS instrument. For each sample, 2 μL samples from the top organic layer of in-plate liquid-liquid extraction were injected onto a Thermo Betabasic C4 column (2.1 mm×20 mm, 5 μm particle size). The samples were then eluted using the following conditions; mobile phase: Isopropanol: acetonitrile/10 mM ammonium formate=50/35/15 (v/v/v), flow rate: 0.8 mL/min, temperature: 25° C. Data was acquired in positive mode using a heated electrospray ionization (HESI) interface. […] The peak area was integrated by Xcalibur Quan software. The ratio between the ^13C18 triolein generated in the reaction and spiked in internal standard ^13C21-triolein was used to generate percentage inhibition and IC50 values. […] DGAT2 activity was determined by measuring the amount of enzymatic product ^13C18-triolein (^13C-1,2,3-Tri(cis-9-octadecenoyl)glycerol) using the membrane prep mentioned above. The assay was carried out in ABgene 384-well assay plates in a final volume of 25 μL at rt.

Sequence of human DGAT2 (Q96PD7 whole entry): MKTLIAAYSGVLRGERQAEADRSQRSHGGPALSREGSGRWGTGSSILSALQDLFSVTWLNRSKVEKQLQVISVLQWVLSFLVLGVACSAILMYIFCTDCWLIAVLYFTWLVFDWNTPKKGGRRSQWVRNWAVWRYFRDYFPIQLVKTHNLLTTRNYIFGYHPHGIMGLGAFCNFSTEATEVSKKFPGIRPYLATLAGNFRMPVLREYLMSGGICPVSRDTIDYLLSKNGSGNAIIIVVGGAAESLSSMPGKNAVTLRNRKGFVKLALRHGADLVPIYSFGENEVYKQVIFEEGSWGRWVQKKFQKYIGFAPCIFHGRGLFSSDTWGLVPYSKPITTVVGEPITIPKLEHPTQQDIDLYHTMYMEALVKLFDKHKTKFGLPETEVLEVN

| SMILES | pIC50 |
| --- | --- |
| O=C(N[C@H]1CCCC(F)(F)[C@@H]1O)c1nc2ccc(Oc3ncc(Cl)cc3OCC(F)(F)F)cc2o1 [Example 1, 6-[[5-chloro-3-(2,2,2-trifluoroethoxy)-2-pyridyl]oxy]-N-[(1S,2R)-3,3-difluoro-2-hydroxy-cyclohexyl]-1,3-benzoxazole-2-carboxamide] | 6.24 |
| Cc1cc2nc(C(=O)NC3(C)CCS(=O)(=O)CC3)n(C)c2nc1Oc1ncc(Cl)cc1OCC(F)F [Example 45, 5-((5-chloro-3-(2,2-difluoroethoxy)pyridin-2-yl)oxy)-3,6-dimethyl-N-(4-methyl-1,1-dioxidotetrahydro-2H-thiopyran-4-yl)-3H-imidazo[4,5-b]pyridine-2-carboxamide] | 8.66 |
| Cn1c(C(=O)NC2(C)CCS(=O)(=O)CC2)nc2cnc(Oc3ncc(Cl)cc3OCC(F)F)cc21 [Example 66, 6-((5-Chloro-3-(2,2-difluoroethoxy)pyridin-2-yl)oxy)-1-methyl-N-(4-methyl-1,1-dioxidotetrahydro-2H-thiopyran-4-yl)-1H-imidazo[4,5-c]pyridine-2-carboxamide] | 7.80 |
| CCC(COc1ccc2nc(C(=O)NC3(C)CCS(=O)(=O)CC3)n(C)c2n1)OCC(F)F (centres unmarked) [Example 60, 5-[2-(2,2-Difluoroethoxy)butoxy]-3-methyl-N-(4-methyl-1,1-dioxo-thian-4-yl)imidazo[4,5-b]pyridine-2-carboxamide] | 8.52 |
| Cc1cc(Oc2ncc(Cl)cc2OCC(F)F)nc2c1nc(C(=O)NC1(C)CCS(=O)(=O)CC1)n2C [Example 49, 5-[[5-chloro-3-(2,2-difluoroethoxy)-2-pyridyl]oxy]-3,7-dimethyl-N-(4-methyl-1,1-dioxo-thian-4-yl)imidazo[4,5-b]pyridin-4-ium-2-carboxamide] | 8.36 |
| Cn1c(C(=O)NC2(C)CCS(=O)(=O)CC2)nc2ccc(OCC(CC(F)(F)F)OC(F)F)nc21 (single isomer, unassigned) [Example 62b, 5-[2-(difluoromethoxy)-4,4,4-trifluoro-butoxy]-3-methyl-N-(4-methyl-1,1-dioxo-thian-4-yl)imidazo[4,5-b]pyridine-2-carboxamide] | 6.79 |
| Cn1c(C(=O)NC2(C)CCS(=O)(=O)CC2)nc2ncc(Oc3ncc(Cl)cc3OCC(F)F)nc21 [Example 90, 6-((5-Chloro-3-(2,2-difluoroethoxy)pyridin-2-yl)oxy)-1-methyl-N-(4-methyl-1,1-dioxidotetrahydro-2H-thiopyran-4-yl)-1H-imidazo[4,5-b]pyrazine-2-carboxamide] | 8.39 |
| Cc1c(Oc2ncc(Cl)cc2OCC(F)F)cnc2nc(C(=O)NC3(C)CCS(=O)(=O)CC3)n(C)c12 [Example 84, 6-[[5-Chloro-3-(2,2-difluoroethoxy)-2-pyridyl]oxy]-1,7-dimethyl-N-(4-methyl-1,1-dioxo-thian-4-yl)imidazo[4,5-b]pyridine-2-carboxamide] | 8.11 |
| Cn1c(C(=O)NC2(C)CCS(=O)(=O)CC2)nc2cc(Cl)c(Oc3ncc(Cl)cc3OCC(F)F)nc21 [Example 44, 6-chloro-5-((5-chloro-3-(2,2-difluoroethoxy)pyridin-2-yl)oxy)-3-methyl-N-(4-methyl-1,1-dioxidotetrahydro-2H-thiopyran-4-yl)-3H-imidazo[4,5-b]pyridine-2-carboxamide] | 7.07 |
| Cn1c(C(=O)NC2(C)CCS(=O)(=O)CC2)nc2cc(F)c(Oc3ncc(Cl)cc3OCC(F)F)nc21 [Example 41, 5-((5-chloro-3-(2,2-difluoroethoxy)pyridin-2-yl)oxy)-6-fluoro-3-methyl-N-(4-methyl-1,1-dioxidotetrahydro-2H-thiopyran-4-yl)-3H-imidazo[4,5-b]pyridine-2-carboxamide] | 8.82 |
| Cc1c(Oc2ncc(Cl)cc2OCC(F)(F)F)ccc2c1nc(C(=O)NC1(C)CCS(=O)(=O)CC1)n2C [Example 26, 5-((5-chloro-3-(2,2,2-trifluoroethoxy)pyridin-2-yl)oxy)-1,4-dimethyl-N-(4-methyl-1,1-dioxidotetrahydro-2H-thiopyran-4-yl)-1H-benzo[d]imidazole-2-carboxamide] | 7.36 |
| Cn1c(C(=O)NC2(C)CCS(=O)(=O)CC2)nc2cc(Oc3ncccc3OCC(F)(F)F)ccc21 [Example 12, 1-Methyl-N-(4-methyl-1,1-dioxidotetrahydro-2H-thiopyran-4-yl)-5-((3-(2,2,2-trifluoroethoxy)pyridin-2-yl)oxy)-1H-benzo[d]imidazole-2-carboxamide] | 6.16 |
| Cc1c(Oc2ncc(Cl)cc2OCC(F)F)ncc2nc(C(=O)NC3(C)CCS(=O)(=O)CC3)n(C)c12 [Example 78, 6-[[5-Chloro-3-(2,2-difluoroethoxy)-2-pyridyl]oxy]-1,7-dimethyl-N-(4-methyl-1,1-dioxo-thian-4-yl)imidazo[4,5-c]pyridine-2-carboxamide] | 8.41 |
| Cn1c(C(=O)NC2(C)CCS(=O)(=O)CC2)nc2cnc(Oc3ncc(Cl)cc3OCC(F)F)nc21 [Example 88, 2-[[5-Chloro-3-(2,2-difluoroethoxy)-2-pyridyl]oxy]-9-methyl-N-(4-methyl-1,1-dioxo-thian-4-yl)purine-8-carboxamide] | 7.24 |
| Cn1c(C(=O)NC2(C)CCS(=O)(=O)CC2)nc2ccc(Oc3ncc(F)cc3OCC(F)F)nc21 [Example 30, 5-((3-(2,2-Difluoroethoxy)-5-fluoropyridin-2-yl)oxy)-3-methyl-N-(4-methyl-1,1-dioxidotetrahydro-2H-thiopyran-4-yl)-3H-imidazo[4,5-b]pyridine-2-carboxamide] | 8.85 |
| CC1(NC(=O)c2nc3cc(Oc4ncccc4OCC(F)(F)F)ccc3o2)CCS(=O)(=O)CC1 [Example 10, N-(4-methyl-1,1-dioxidotetrahydro-2H-thiopyran-4-yl)-5-((3-(2,2,2-trifluoroethoxy)pyridin-2-yl)oxy)benzo[d]oxazole-2-carboxamide] | 6.03 |
| Cn1c(C(=O)NC2(C)CCS(=O)(=O)CC2)nc2ccc(OCc3ncc(Cl)cc3OCC(F)F)nc21 [Example 58, 5-((5-Chloro-3-(2,2-difluoroethoxy)pyridin-2-yl)methoxy)-3-methyl-N-(4-methyl-1,1-dioxidotetrahydro-2H-thiopyran-4-yl)-3H-imidazo[4,5-b]pyridine-2-carboxamide] | 8.64 |

Same assay, conditions: read-out: Human DGAT2 IC50; hDGAT2 membrane prep from Sf-9 cells; 13C18-triolein product by LC/MS/MS

| SMILES | pIC50 |
| --- | --- |
| Cn1c(C(=O)NC2(C)CCS(=O)(=O)CC2)nc2cnc(Oc3ncc(F)cc3OCC(F)(F)F)c(F)c21 [Example 77, 7-fluoro-6-[[5-fluoro-3-(2,2,2-trifluoroethoxy)-2-pyridyl]oxy]-1-methyl-N-(4-methyl-1,1-dioxo-thian-4-yl)imidazo[4,5-c]pyridine-2-carboxamide] | 7.32 |
| Cc1cnc(Oc2cc3c(cn2)nc(C(=O)NC2(C)CCS(=O)(=O)CC2)n3C)c(OCC(F)F)c1 [Example 73, 6-[[3-(2,2-difluoroethoxy)-5-methyl-2-pyridyl]oxy]-1-methyl-N-(4-methyl-1,1-dioxo-thian-4-yl)imidazo[4,5-c]pyridine-2-carboxamide] | 8.04 |
| CC1(NC(=O)c2nc3ccc(Oc4ncc(Cl)cc4OCC(F)F)nc3n2CC2(F)COC2)CCS(=O)(=O)CC1 [Example 57, 5-((5-chloro-3-(2,2-difluoroethoxy)pyridin-2-yl)oxy)-3-((3-fluorooxetan-3-yl)methyl)-N-(4-methyl-1,1-dioxidotetrahydro-2H-thiopyran-4-yl)-3H-imidazo[4,5-b]pyridine-2-carboxamide] | 6.74 |
| CC1(NC(=O)c2nc3ccc(Oc4ncc(Cl)cc4OCC(F)(F)F)cc3o2)CC(F)(F)C1 [Example 4] | 6.63 |
| Cn1c(C(=O)NC2(C)CCS(=O)(=O)CC2)nc2ccc(Oc3nccnc3OCC(F)F)nc21 [Example 38, 5-[3-(2,2-difluoroethoxy)pyrazin-2-yl]oxy-3-methyl-N-(4-methyl-1,1-dioxo-thian-4-yl)imidazo[4,5-b]pyridine-2-carboxamide] | 7.70 |
| Cc1nc(Oc2ncc(Cl)cc2OCC(F)F)cc2c1nc(C(=O)NC1(C)CCS(=O)(=O)CC1)n2C [Example 74, 6-[5-chloro-3-(2,2-difluoroethoxy)pyridin-1-ium-2-yl]oxy-1,4-dimethyl-N-(4-methyl-1,1-dioxo-thian-4-yl)imidazo[4,5-c]pyridine-2-carboxamide] | 7.85 |
| Cn1c(C(=O)NC2(C)CCS(=O)(=O)CC2)nc2cnc(OCc3ncc(F)cc3OCC(F)(F)F)cc21 [Example 81, 6-[[5-Fluoro-3-(2,2,2-trifluoroethoxy)-2-pyridyl]methoxy]-1-methyl-N-(4-methyl-1,1-dioxo-thian-4-yl)imidazo[4,5-c]pyridine-2-carboxamide] | 6.58 |
| Cn1c(C(=O)NC2(C)CCS(=O)(=O)CC2)nc2cnc(Oc3nccnc3OCC(F)(F)F)cc21 [Example 69, 1-methyl-N-(4-methyl-1,1-dioxo-thian-4-yl)-6-[3-(2,2,2-trifluoroethoxy)pyrazin-2-yl]oxy-imidazo[4,5-c]pyridine-2-carboxamide] | 6.98 |
| O=C(N[C@H]1CCOC1)c1nc2ccc(Oc3ncc(Cl)cc3OCC(F)(F)F)cc2o1 [Example 5, 6-[[5-chloro-3-(2,2,2-trifluoroethoxy)-2-pyridyl]oxy]-N-[(3S)-tetrahydrofuran-3-yl]-1,3-benzoxazole-2-carboxamide] | 5.74 |
| Cn1c(C(=O)NC2(C)CCS(=O)(=O)CC2)nc2cnc(Oc3ncc(F)cc3OCC(F)(F)F)nc21 [Example 89, 2-[[5-fluoro-3-(2,2,2-trifluoroethoxy)-2-pyridyl]oxy]-9-methyl-N-(4-methyl-1,1-dioxo-thian-4-yl)purine-8-carboxamide] | 7.60 |
| Cn1c(C(=O)N[C@H]2CCCC(F)(F)[C@@H]2O)nc2cnc(Oc3ncc(Cl)cc3OCC(F)F)cc21 [Example 75, 6-[[5-chloro-3-(2,2-difluoroethoxy)-2-pyridyl]oxy]-N-[(1S,2R)-3,3-difluoro-2-hydroxy-cyclohexyl]-1-methyl-imidazo[4,5-c]pyridine-2-carboxamide] | 8.00 |
| CCn1c(C(=O)NC2(C)CCS(=O)(=O)CC2)nc2ccc(Oc3ncc(Cl)cc3OCC(F)F)nc21 [Example 55, 5-((5-chloro-3-(2,2-difluoroethoxy)pyridin-2-yl)oxy)-3-ethyl-N-(4-methyl-1,1-dioxidotetrahydro-2H-thiopyran-4-yl)-3H-imidazo[4,5-b]pyridine-2-carboxamide] | 8.05 |
